Key:
Type in all cases: in vivo
Plutella xylostella = Plutella xylostella (Diamond back moth) artificial diet test; conditions: 120 h, application rate of 200 ppm, L2 larvae, 5 days after infestation, read-out: effect in at least one of the two categories (mortality or growth inhibition)
Experimental: Plutella xylostella (Diamond back moth):
24-well microtiter plates with artificial diet were treated with aqueous test solutions prepared from 10,000 ppm DMSO stock solutions by pipetting. After drying, the plates were infested with L2 larvae (10 to 15 per well). The samples were assessed for mortality and growth inhibition in comparison to untreated samples 5 days after infestation. The following compounds gave an effect of at least 80% in at least one of the two categories (mortality or growth inhibition) at an application rate of 200 ppm: 1, 2, 3, 4, 7 and 10.

Spodoptera littoralis = Spodoptera littoralis (Egyptian cotton leaf worm) cotton leaf disc spray test; conditions: foliar, 72 h, application rate of 200 ppm, L1 larvae, 3 days after infestation, read-out: control (at least one of mortality, anti-feedant effect, growth inhibition)
Experimental: Spodoptera littoralis (Egyptian cotton leaf worm)
Cotton leaf discs were placed on agar in 24-well microtiter plates and sprayed with aqueous test solutions prepared from 10,000 ppm DMSO stock solutions. After drying the leaf discs were infested with five L1 larvae. The samples were assessed for mortality, anti-feedant effect, and growth inhibition in comparison to untreated samples 3 days after infestation. Control of Spodoptera littoralis by a test sample is when at least one of mortality, anti-feedant effect, and growth inhibition is higher than the untreated sample.

Euschistus heros = Euschistus heros (Neotropical Brown Stink Bug) soybean leaf spray test; conditions: 120 h, application rate of 200 ppm, N2 nymphs, 5 days after infestation, read-out: effect in at least one of the two categories (mortality or growth inhibition)
Experimental: Euschistus heros (Neotropical Brown Stink Bug)
Soybean leaves on agar in 24-well microtiter plates were sprayed with aqueous test solutions prepared from 10,000 ppm DMSO stock solutions. After drying the leaves were infested with N2 nymphs. The samples were assessed for mortality and growth inhibition in comparison to untreated samples 5 days after infestation. The following compounds gave an effect of at least 80% in at least one of the two categories (mortality or growth inhibition) at an application rate of 200 ppm: 1, 3 and 7.

Tetranychus urticae = Tetranychus urticae (Two-spotted spider mite) bean leaf disc spray test; conditions: foliar, 192 h, application rate of 200 ppm, 8 days after infestation, read-out: mortality on mixed population (mobile stages)
Experimental: Tetranychus urticae (Two-spotted spider mite):
Bean leaf discs on agar in 24-well microtiter plates were sprayed with aqueous test solutions prepared from 10,000 ppm DMSO stock solutions. After drying the leaf discs were infested with a mite population of mixed ages. The samples were assessed for mortality on mixed population (mobile stages) 8 days after infestation.

Thrips tabaci = Thrips tabaci (Onion thrips) sunflower leaf disc spray test; conditions: foliar, 144 h, application rate of 200 ppm, population of mixed ages, 6 days after infestation
Experimental: Thrips tabaci (Onion thrips):
Sunflower leaf discs were placed on agar in 24-well microtiter plates and sprayed with aqueous test solutions prepared from 10,000 ppm DMSO stock solutions. After drying the leaf discs were infested with a thrips population of mixed ages. The samples were assessed for mortality 6 days after infestation.

Diabrotica balteata = Diabrotica balteata (Corn root worm) maize sprout spray test; conditions: 96 h, application rate of 200 ppm, L2 larvae, 4 days after infestation, read-out: effect in at least one of the two categories (mortality or growth inhibition)
Experimental: Diabrotica balteata, (Corn root worm)
Maize sprouts, placed on an agar layer in 24-well microtiter plates were treated with aqueous test solutions prepared from 10,000 ppm DMSO stock solutions by spraying. After drying, the plates were infested with L2 larvae (6 to 10 per well). The samples were assessed for mortality and growth inhibition in comparison to untreated samples 4 days after infestation. The following compounds gave an effect of at least 80% in at least one of the two categories (mortality or growth inhibition) at an application rate of 200 ppm: 1, 2, 3 and 7.

Cn1nc(C(F)(F)C(F)(F)F)c(OC(F)F)c1-n1cc(-c2cc(C(=O)NC3CC3)c(C#N)s2)nn1 [Example 1, 2-cyano-N-cyclopropyl-5-[1-[4-(difluoromethoxy)-2-methyl-5-(1,1,2,2,2-pentafluoroethyl)pyrazol-3-yl]triazol-4-yl]thiophene-3-carboxamide]
≥ 80%: percent effect (mortality or growth inhibition) at 200 ppm (Plutella xylostella) | percent control (mortality, anti-feedant effect or growth inhibition) at 200 ppm (Spodoptera littoralis) | percent effect (mortality or growth inhibition) at 200 ppm (Euschistus heros) | mortality at 200 ppm (Tetranychus urticae) | mortality at 200 ppm (Thrips tabaci) | percent effect (mortality or growth inhibition) at 200 ppm (Diabrotica balteata)

CN(C(=O)c1cc(-c2cn(-c3c(OC(F)F)c(C(F)(F)C(F)(F)F)nn3C)nn2)sc1C#N)C1CC1 [Example 2, 2-cyano-N-cyclopropyl-5-[1-[4-(difluoromethoxy)-2-methyl-5-(1,1,2,2,2-pentafluoroethyl)pyrazol-3-yl]triazol-4-yl]-N-methyl-thiophene-3-carboxamide]
≥ 80%: percent effect (mortality or growth inhibition) at 200 ppm (Plutella xylostella) | percent control (mortality, anti-feedant effect or growth inhibition) at 200 ppm (Spodoptera littoralis) | mortality at 200 ppm (Tetranychus urticae) | mortality at 200 ppm (Thrips tabaci) | percent effect (mortality or growth inhibition) at 200 ppm (Diabrotica balteata)

CCN(C(=O)c1cc(-c2cn(-c3c(OC(F)F)c(C(F)(F)C(F)(F)F)nn3C)nn2)sc1C#N)C1CC1 [Example 3, 2-cyano-N-cyclopropyl-5-[1-[4-(difluoromethoxy)-2-methyl-5-(1,1,2,2,2-pentafluoroethyl)pyrazol-3-yl]triazol-4-yl]-N-ethyl-thiophene-3-carboxamide]
≥ 80%: percent effect (mortality or growth inhibition) at 200 ppm (Plutella xylostella) | percent control (mortality, anti-feedant effect or growth inhibition) at 200 ppm (Spodoptera littoralis) | percent effect (mortality or growth inhibition) at 200 ppm (Euschistus heros) | mortality at 200 ppm (Tetranychus urticae) | mortality at 200 ppm (Thrips tabaci) | percent effect (mortality or growth inhibition) at 200 ppm (Diabrotica balteata)

Cn1nc(C(F)(F)C(F)(F)F)c(OC(F)F)c1-n1cc(-c2cc(C(=O)NC3(C#N)CC3)c(C#N)s2)nn1 [Example 4, 2-cyano-N-(1-cyanocyclopropyl)-5-[1-[4-(difluoromethoxy)-2-methyl-5-(1,1,2,2,2-pentafluoroethyl)pyrazol-3-yl]triazol-4-yl]thiophene-3-carboxamide]
≥ 80%: percent effect (mortality or growth inhibition) at 200 ppm (Plutella xylostella) | percent control (mortality, anti-feedant effect or growth inhibition) at 200 ppm (Spodoptera littoralis) | mortality at 200 ppm (Tetranychus urticae) | mortality at 200 ppm (Thrips tabaci)

Cn1nc(C(F)(F)C(F)(F)F)c(OC(F)F)c1-n1cc(-c2cc(C(=O)NC3CC3)c(Cl)s2)nn1 [Example 7, 2-chloro-N-cyclopropyl-5-[1-[4-(difluoromethoxy)-2-methyl-5-(1,1,2,2,2-pentafluoroethyl)pyrazol-3-yl]triazol-4-yl]thiophene-3-carboxamide]
≥ 80%: percent effect (mortality or growth inhibition) at 200 ppm (Plutella xylostella) | percent control (mortality, anti-feedant effect or growth inhibition) at 200 ppm (Spodoptera littoralis) | percent effect (mortality or growth inhibition) at 200 ppm (Euschistus heros) | mortality at 200 ppm (Thrips tabaci) | percent effect (mortality or growth inhibition) at 200 ppm (Diabrotica balteata)

Cn1nc(C(F)(F)C(F)(F)F)c(OC(F)F)c1-n1cc(-c2cc(C(=O)NC3(C#N)CC3)c(Cl)s2)nn1 [Example 10, 2-chloro-N-(1-cyanocyclopropyl)-5-[1-[4-(difluoromethoxy)-2-methyl-5-(1,1,2,2,2-pentafluoroethyl)pyrazol-3-yl]triazol-4-yl]thiophene-3-carboxamide]
≥ 80%: percent effect (mortality or growth inhibition) at 200 ppm (Plutella xylostella) | percent control (mortality, anti-feedant effect or growth inhibition) at 200 ppm (Spodoptera littoralis) | mortality at 200 ppm (Thrips tabaci)

— patent publication US11142519B2, “Pesticidally active pyrazole derivatives” (SYNGENTA PARTICIPATIONS AG, priority 2017, dated 2021)
